Assays:
Klebsiella = experiment: CO2 evolution from 14C-D-glucose, second series; format: cell-based; set-up: Cumulative Growth Index Reading (CO2 Blowoff) 0 HR: scale not given here
Procedure: Experiments to look at the above conclusions in depth were performed. In these experiments, cultures of Klebsiella were challenged with various concentrations of BNS and the effects on C02 evolution from glucose, viability, TOC (Total Organic Carbon), TIC (Total Inorganic Carbon) production, removal, and DO (Dissolved Oxygen) removal were determined. Concentrations of BNS from 0.05 to 100 µg/mL were used. […] CO2 evolution decreased after 5 gg/mL. […] The viability dropped off after that with 99% inhibition at concentrations somewhere between 10 - 20 µg/mL. Organic carbon removal gave the most puzzling pattern. […] CO2 was produced, however, as reflected by the C02 blowoff experiments and the TIC data. The organic carbon being oxidized (removed) must have been cancelled out by an organic carbon addition caused by limited bacterial lysis. This phenomenon was investigated again. […] It appeared that 5 ppm BNS would be the maximum concentration that could be used for the desired effect, with the majority of favorable results occurring in the 0.05 - 2 ppm range.
The experiments coordinating the measurements of C02 evolution, TOC reduction, viable count, and dissolved oxygen (DO) reduction were performed as follows: C02 evolution by Klebsiella was measured as described previously using a narrowed set of BNS concentrations. At the same time, Klebsiella cells grown overnight in nutrient broth were standardized into an inoculum of 250 Klett units. These cells were used to inoculate 19 mL quantities of fresh nutrient broth (1 mL inoculum) in baffled shake flasks. These shake flasks were placed into water bath shakers at 37°C and allowed to shake for 5 hours. Concentrations of BNS equivalent to the C02 blowoff experiment were added to the flasks at the beginning of the experiment. Controls containing no BNS were included for comparisons. Total organic carbon measurements were taken after 5 hours incubation. Viable counts were done at 1 hour, 3 hours, and 5 hours. A parallel experiment was performed using the same setup except that after BNS additions, the flasks were shaken for 30 minutes and then held stationary. DO measurements were taken at 5 hours incubation with the use of a YSI Model 54A oxygen meter.

Klebsiella pneumoniae = experiment: microbe, parasite or virus in culture; format: cell-based
Procedure: The first series of experiments involved the measurement of the amount of C02 evolved from aerobically growing cultures of the representative organism Klebsiella in the presence and absence of uncoupling agents. The known uncouplers 2, 4 dinitrophenol (DNP) and carbonyl cyanide m-chlorophenyl hydrazone (CCCP) were tested along with bis (tricholoromethyl) sulfone (TCMS) and beta-bromo-beta-nitrostyrene (BNS). It can be seen from the data that CCCP caused large increases in C02 evolution over the untreated controls at all concentrations used, with the largest increase (29%) at 5 µg/mL (24.4 uM). […] Bacterial counts also reflected the lack of uncoupling activity. […] Largest increase in C02 blowoff came at 50 ppm (32%). BNS gave a mixed pattern as opposed to those of DNP and CCCP. […] Even at 10 µg/mL, the bacterial count was reduced ~ 50% while still giving greater C02 blowoff than control cultures.
The procedure utilized to perform the first series of experiments was as follows: • Sealed vials containing 8 mL of minimal salts medium (Composition: K2HPO4-39, KH2PO4-lg, MgSO4-0.2g, (NN4)2SO4^-1g, D-glucose-5g (optional) in 1 liter. Autoclave and adjust pH to 6.8) lacking any carbon source were each injected with 1 mL of a suspension of Klebsiella pneumoniae. (Klebsiella was grown overnight, shaken at 37°C, in minimal salts medium containing glucose to a heavy cell suspension. The cells were centrifuged at 10,000 g and resuspended to a turbidity of 150 Klett units [Klett-Summerson photometer, #42 blue filter) in minimal salts medium [MSM], no glucose. These cells were again centrifuged, and resuspended in MSM at 1/10 the volume used previously. This 10X cell suspension was used as the standard inoculum for the vials.) The vials were- simultaneously injected with 1 mL of a 1 µ Ci/mL solution of ^14C-U-D glucose and the appropriate concentration of material to be tested. The compounds tested were fed at concentrations of […]. Controls received no test material and all vials were shaken during the course of the experiments at 37°C. Vials were read for C02 blowoff at the times indicated on the appropriate Tables. Standard bacterial counts were done on each vial after the end of each experimental series. [formula] [formula] [formula] [formula]

O=[N+]([O-])C(Br)=Cc1ccccc1 [BNS, beta-bromo-beta-nitrostyrene]
Cumulative Growth Index Reading (CO2 Blowoff) 0 HR (Klebsiella; BNS 0.05 μg/mL): 2
Cumulative Growth Index Reading (CO2 Blowoff) 0.5 HR (Klebsiella; BNS 0.05 μg/mL): 762
Cumulative Growth Index Reading (CO2 Blowoff) 1 HR (Klebsiella; BNS 0.05 μg/mL): 1,082
Cumulative Growth Index Reading (CO2 Blowoff) 3 HR (Klebsiella; BNS 0.05 μg/mL): 1,642
Cumulative Growth Index Reading (CO2 Blowoff) 5 HR (Klebsiella; BNS 0.05 μg/mL): 2,012
Cumulative Growth Index Reading (CO2 Blowoff) 0 HR (Klebsiella; BNS 0.1 μg/mL): 2
Cumulative Growth Index Reading (CO2 Blowoff) 0.5 HR (Klebsiella; BNS 0.1 μg/mL): 877
Cumulative Growth Index Reading (CO2 Blowoff) 1 HR (Klebsiella; BNS 0.1 μg/mL): 1,197
Cumulative Growth Index Reading (CO2 Blowoff) 3 HR (Klebsiella; BNS 0.1 μg/mL): 1,797
Cumulative Growth Index Reading (CO2 Blowoff) 5 HR (Klebsiella; BNS 0.1 μg/mL): 2,197
Cumulative Growth Index Reading (CO2 Blowoff) 0 HR (Klebsiella; BNS 0.5 μg/mL): 1
Cumulative Growth Index Reading (CO2 Blowoff) 0.5 HR (Klebsiella; BNS 0.5 μg/mL): 801
Cumulative Growth Index Reading (CO2 Blowoff) 1 HR (Klebsiella; BNS 0.5 μg/mL): 1,121
Cumulative Growth Index Reading (CO2 Blowoff) 3 HR (Klebsiella; BNS 0.5 μg/mL): 1,761
Cumulative Growth Index Reading (CO2 Blowoff) 5 HR (Klebsiella; BNS 0.5 μg/mL): 2,201
Cumulative Growth Index Reading (CO2 Blowoff) 0 HR (Klebsiella; BNS 1.0 μg/mL): 1
Cumulative Growth Index Reading (CO2 Blowoff) 0.5 HR (Klebsiella; BNS 1.0 μg/mL): 761
Cumulative Growth Index Reading (CO2 Blowoff) 1 HR (Klebsiella; BNS 1.0 μg/mL): 1,091
Cumulative Growth Index Reading (CO2 Blowoff) 3 HR (Klebsiella; BNS 1.0 μg/mL): 1,741
Cumulative Growth Index Reading (CO2 Blowoff) 5 HR (Klebsiella; BNS 1.0 μg/mL): 2,201
Cumulative Growth Index Reading (CO2 Blowoff) 0 HR (Klebsiella; BNS 2 μg/mL): 2
Cumulative Growth Index Reading (CO2 Blowoff) 0.5 HR (Klebsiella; BNS 2 μg/mL): 752
Cumulative Growth Index Reading (CO2 Blowoff) 1 HR (Klebsiella; BNS 2 μg/mL): 1,072
Cumulative Growth Index Reading (CO2 Blowoff) 3 HR (Klebsiella; BNS 2 μg/mL): 1,732
Cumulative Growth Index Reading (CO2 Blowoff) 5 HR (Klebsiella; BNS 2 μg/mL): 2,212
Cumulative Growth Index Reading (CO2 Blowoff) 0 HR (Klebsiella; BNS 5 μg/mL): 0
Cumulative Growth Index Reading (CO2 Blowoff) 0.5 HR (Klebsiella; BNS 5 μg/mL): 750
Cumulative Growth Index Reading (CO2 Blowoff) 1 HR (Klebsiella; BNS 5 μg/mL): 1,032
Cumulative Growth Index Reading (CO2 Blowoff) 3 HR (Klebsiella; BNS 5 μg/mL): 1,570
Cumulative Growth Index Reading (CO2 Blowoff) 5 HR (Klebsiella; BNS 5 μg/mL): 1,980
Cumulative Growth Index Reading (CO2 Blowoff) 0 HR (Klebsiella; BNS 10 μg/mL): 2
Cumulative Growth Index Reading (CO2 Blowoff) 0.5 HR (Klebsiella; BNS 10 μg/mL): 682
Cumulative Growth Index Reading (CO2 Blowoff) 1 HR (Klebsiella; BNS 10 μg/mL): 952
Cumulative Growth Index Reading (CO2 Blowoff) 3 HR (Klebsiella; BNS 10 μg/mL): 1,392
Cumulative Growth Index Reading (CO2 Blowoff) 5 HR (Klebsiella; BNS 10 μg/mL): 1,662
Cumulative Growth Index Reading (CO2 Blowoff) 0 HR (Klebsiella; BNS 20 μg/mL): 1
Cumulative Growth Index Reading (CO2 Blowoff) 0.5 HR (Klebsiella; BNS 20 μg/mL): 451
Cumulative Growth Index Reading (CO2 Blowoff) 1 HR (Klebsiella; BNS 20 μg/mL): 616
Cumulative Growth Index Reading (CO2 Blowoff) 3 HR (Klebsiella; BNS 20 μg/mL): 916
Cumulative Growth Index Reading (CO2 Blowoff) 5 HR (Klebsiella; BNS 20 μg/mL): 1,101
Cumulative Growth Index Reading (CO2 Blowoff) 0 HR (Klebsiella; BNS 50 μg/mL): 1
Cumulative Growth Index Reading (CO2 Blowoff) 0.5 HR (Klebsiella; BNS 50 μg/mL): 271
Cumulative Growth Index Reading (CO2 Blowoff) 1 HR (Klebsiella; BNS 50 μg/mL): 381
Cumulative Growth Index Reading (CO2 Blowoff) 3 HR (Klebsiella; BNS 50 μg/mL): 651
Cumulative Growth Index Reading (CO2 Blowoff) 5 HR (Klebsiella; BNS 50 μg/mL): 876
Cumulative Growth Index Reading (CO2 Blowoff) 0 HR (Klebsiella; BNS 100 μg/mL): 2
Cumulative Growth Index Reading (CO2 Blowoff) 0.5 HR (Klebsiella; BNS 100 μg/mL): 97
Cumulative Growth Index Reading (CO2 Blowoff) 1 HR (Klebsiella; BNS 100 μg/mL): 202
Cumulative Growth Index Reading (CO2 Blowoff) 3 HR (Klebsiella; BNS 100 μg/mL): 287
Cumulative Growth Index Reading (CO2 Blowoff) 5 HR (Klebsiella; BNS 100 μg/mL): 365
concentrations at which toxic properties become evident (Klebsiella pneumoniae): > 5.0 µg/mL
activation at 1 µg/mL (Klebsiella pneumoniae; Klebsiella pneumoniae, 1.0 µ/mL, 14C-glucose, read-out: largest increase in C02 blowoff): 13%
